Assay results reported in patent publication US20250136581A1, “SUBSTITUTED TRIAZOLE DERIVATIVE, PREPARATION METHOD THEREFOR, PHARMACEUTICAL COMPOSITION THEREOF, AND USE THEREOF” (SHANGHAI SIMR BIOTECHNOLOGY CO., LTD., priority 2021, published 2025).

Target: human α5β3γ2 receptors (α5-GABAA receptor) (Homo sapiens (Human), UniProt P18507+P31644)
Experiment: 3H-flunitrazepam competition binding, human α5β3γ2 GABAA receptor
Conditions: HEK293 cell membranes, 1 nM 3H-flunitrazepam; read-out: α5-GABAAR Ki
In short: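 Radioligand displacement of 1 nM 3H-flunitrazepam from membranes of HEK293 lines stably expressing the human subtypes, 1 h at room temperature, compound in 8-point 4-fold series. Bound label on GF/C filters counted by scintillation; Ki derived from fitted IC50, with flumazenil as low control.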

Ki: 0.91 nM
SMILES: Cc1nnn(-c2ccc(C(F)F)cc2)c1COc1ccc(N2CC(=O)NC(C)C2)nn1 (stereo not shown) [Example 6, 4-(6-((1-(4-(Difluoromethyl)phenyl)-4-methyl-1H-1,2,3-triazol-5-yl)methoxy)pyridazin-3-yl)-6-methylpiperazin-2-one]
